These results are taken from paper PMC4102782, “Dual Aurora A and JAK2 kinase blockade effectively suppresses malignant transformation” (Oncotarget, 2014).

What is called IC50 is the concentration that gives 50% inhibition. A lower IC50 goes with greater potency.

Where two headings read alike, the source gives them in different places.

One test relates to HT29 cells. Briefly: Anchorage-dependent proliferation, MTT assay, HT29. To be noted: Homo sapiens; for IC50: HT29, MTT. The format is cell-based. On the procedure: (§1) Cells were cultured in 96 well plates at a density of 2,000 cells/ well. The cells with siRNA transfection or with the inhibitor treatment were monitored for viability using MTT at indicated time points. At the given time points, MTT reagent was added to the media and allowed to incubate for 3 h at 37° C in a humidified incubator at 5% CO2. The medium was then removed and MTT crystals were dissolved in DMSO (Sigma). Cell viability was quantified by reading the plates at an absorbance of 540 nm on a μQuant microplate reader using KC4 data analysis software (Bio-Tek Instruments). The 540 nm absorbance of vehicle-treated wells was used to define 100% proliferation. Each condition was performed in replicates of six wells.
In general terms: Tetrazolium assays rely on reduction of a dye to a coloured formazan, in cell work by metabolically active cells.

Test [1] deals with PARP cleavage and Caspase 3 activation in MDA-MB-468 cells. Put plainly: Apoptosis by Western blot of PARP cleavage and Caspase 3 activation, MDA-MB-468. The format is cell-based, human. Particulars: MDA-MB-468, single agent, low concentration. The protocol: Cells were harvested from experiments of ectopic expression or knockdown using siRNA or the treatment with the inhibitors, washed, and then lysed using lysis buffer as previously described. The protein concentration of the lysate was measured, and the lysate was mixed with gel electrophoresis loading buffer, boiled for 5 minutes, separated by SDS-PAGE, and transferred to nitrocellulose membranes. […] To evaluate the effect of inhibitors on cell cycle progression, cells were treated with inhibitors at indicated dose or DMSO control and then harvested, fixed with 70% ethanol pretreated with RNase, and stained with propidium iodide (PI) (Sigma) as previously described for flow cytometry analysis. For the detection of apoptosis, cells were cultured for 24 h in medium with inhibitors at indicated dose or DMSO control and harvested for SDS-PAGE and Western blotting. The siRNA or drug treatment-induced apoptosis was detected by Western blot analysis of the cleavage of PARP and caspase-3.
(In western blotting, separated proteins are transferred to a membrane and probed.)

For test [2], the system named is P-STAT3 (Y705), JAK2 substrate. Briefly: Western blot, phosphorylation of STAT3 in MDA-MB-468 cells. It is filed as cell-based, human. The protocol: (§2) Cells were plated in 6 cm dishes at a density of 2 × 10^5 cells/dish. Aurora A activity was determined by measuring autophosphorylation of Aurora A on Thr288 in cells that were synchronized by treatment with nocodazole (100 ng/mL) for 20 h prior to the treatment with Aurora inhibitors, whereas Aurora B activity was determined by measuring phosphorylation of histone H3 on Ser-10 (p-HH3). […] Cells were harvested after 2 h of treatment and processed for SDS−PAGE and Western blotting.
(§3) Cells were harvested from experiments of ectopic expression or knockdown using siRNA or the treatment with the inhibitors, washed, and then lysed using lysis buffer as previously described. The protein concentration of the lysate was measured, and the lysate was mixed with gel electrophoresis loading buffer, boiled for 5 minutes, separated by SDS-PAGE, and transferred to nitrocellulose membranes.

Test [3] has as its system MDA-MB-468 cells. Put plainly: Matrigel Transwell invasion, MDA-MB-468. It is filed as cell-based, human. To be noted: for invaded cells: vehicle 344. The protocol:
Cells were transfected with Aurora A and JAK2 for 48 h or with siRNA for 72 h or treated with the compounds for 24 h and then were trypsinized and resuspended in serum-free medium and placed in the upper chamber of the Matrigel-coated (0.8 μg/μL, BD Biosciences, San Diego, CA) Transwell insert (from 2 to 5 × 10^4 cells/well) and with 0.5% DMSO or the compounds at the indicated dose. Medium containing 10%FBS was placed in the lower chamber. […] Invading cells in the membrane were fixed with 100% methanol and stained with fresh prepared 0.2% crystal violet. Noninvasive cells in the upper chamber were removed by wiping the upper side of the membrane with a cotton swab, and cells located on the underside of the filter were observed and photographed under Olympus stereo microscope. The number of invading cells was counted using Image-Pro analysis software.

Test [4] concerns MDA-MB-468 cells. Put plainly: Anchorage-dependent proliferation, MTT assay, MDA-MB-468. The format is cell-based. Particulars: Homo sapiens, 48 h; for IC50: MDA-MB-468, MTT. On the procedure:
as §1

The subject of test [5] is P-Histone H3 (Ser-10), Aurora B substrate. Put plainly: Western blot, phosphorylation of Histone H3 in MDA-MB-468 cells. It is filed as cell-based, human. The protocol:
as §2, §3

The subject of a further test is P-STAT3. Put plainly: Western blot, phosphorylation of STAT3 in HT-29 cells. The format is cell-based, human. The protocol:
as §2, §3

Test [6] relates to Aurora A auto-phosphorylation (Thr-288). Briefly: Western blot, Aurora A auto-phosphorylation in nocodazole-synchronized MDA-MB-468 cells. The format is cell-based, human. To be noted: MDA-MB-468, nocodazole-synchronized, 2 h. The protocol: as §2, §3
Another test deals with P-Histone H3. Put plainly: Western blot, phosphorylation of Histone H3 in HT-29 cells. The format is cell-based, human. The protocol:
as §2, §3

The test system of test [7] is HT-29 cells. Briefly: Soft agar anchorage-independent growth, HT-29. The format is cell-based, human. Particulars: for soft agar colonies: vehicle 129. The protocol:
The cells were allowed to incubate at 37° C for 3 weeks and fed once per week with the inhibitor before 1 mg/ml MTT (Sigma) solution was added overnight to facilitate colony counting. Colonies were scored and counted according to size, as previously described.

The test system of test [8] is HT-29 cells. Briefly: Matrigel Transwell invasion, HT-29. It is filed as cell-based, human. Particulars: for invaded cells: vehicle 1066. The source says: Medium containing 10%FBS was placed in the lower chamber. […] Invading cells in the membrane were fixed with 100% methanol and stained with fresh prepared 0.2% crystal violet. Noninvasive cells in the upper chamber were removed by wiping the upper side of the membrane with a cotton swab, and cells located on the underside of the filter were observed and photographed under Olympus stereo microscope. The number of invading cells was counted using Image-Pro analysis software.

Test [9] relates to MDA-MB-468 cells. Put plainly: Soft agar anchorage-independent growth, MDA-MB-468. The format is cell-based, human. To be noted: for soft agar colonies: vehicle 131. On the procedure:
For analysis of anchorage-independent growth, log-phase growing cells were trypsinized, and triplicates of 1.5 × 10^3 cells per well were seeded in regular growth medium containing 0.3% agar (Sigma) and drug added at the indicated concentrations, as previously described. The cells were allowed to incubate at 37° C for 3 weeks and fed once per week with the inhibitor before 1 mg/ml MTT (Sigma) solution was added overnight to facilitate colony counting. Colonies were scored and counted according to size, as previously described.

The test system of test [10] is MDA-MB-468 cells. Briefly: Cell-cycle analysis by flow cytometry, MDA-MB-468. The format is cell-based, human. Particulars: MDA-MB-468, same conditions, data not shown. The protocol:
To evaluate the effect of inhibitors on cell cycle progression, cells were treated with inhibitors at indicated dose or DMSO control and then harvested, fixed with 70% ethanol pretreated with RNase, and stained with propidium iodide (PI) (Sigma) as previously described for flow cytometry analysis. For the detection of apoptosis, cells were cultured for 24 h in medium with inhibitors at indicated dose or DMSO control and harvested for SDS−PAGE and Western blotting. The siRNA or drug treatment-induced apoptosis was detected by Western blot analysis of the cleavage of PARP and caspase-3.
For orientation: In flow cytometry, cells or beads pass a laser one at a time.

Where [11] appears, read: Homo sapiens, MDA-MB-468, Alisertib 0.5 μM.
[12] abbreviates: MDA-MB-468, increasing concentrations, 2 h.
Setting [13] is: Homo sapiens, MDA-MB-468, Ruxolitinib 30 μM.

Turning to `COc1cc(Nc2ncc3c(n2)-c2ccc(Cl)cc2C(c2c(F)cccc2OC)=NC3)ccc1C(=O)O` [Alisertib], the inhibition at 0.05 µM stood at 5% with HT29 cells (HT-29, 48 h, read-out: inhibition of proliferation) and 25.4% with MDA-MB-468 cells [4] (MDA-MB-468, Alisertib 0.05 μM). Moreover, the concentration for half-maximal inhibition (IC50) with HT29 cells (HT-29, 48 h) was determined as 2 µM; in the test with MDA-MB-468 cells [4], 0.07 µM. The PARP cleavage result in test [1] (e.g. Alisertib 0.03 μM) is reported as “neither Alisertib nor Ruxolitinib induced PARP cleavage”. Also, the “effect on P-STAT3” value in test [2] (MDA-MB-468, Alisertib 0.5 μM) is given as “not P-STAT3”; in the test on P-STAT3 (HT-29, Alisertib 2 μM), “not P-STAT3”. For the same molecule, the results for the inhibition at 0.5 µM in the test on MDA-MB-468 cells [3] (setting [11]) and in the test with MDA-MB-468 cells [9] (setting [11]) were 24.5% and 49%, respectively. Further, the invaded cells is listed as 260 cells with MDA-MB-468 cells [3] (MDA-MB-468, Alisertib 0.5 μM) and 384 cells in the test on HT-29 cells [8] (HT-29, Alisertib 4 μM). Besides, the “effect on P-Histone H3” value is reported as “inhibited P-Histone H3” in [5] (MDA-MB-468, Alisertib 0.5 μM) and “inhibited P-Histone H3” in the test with P-Histone H3 (HT-29, Alisertib 2 μM). Besides, in test [5] (setting [12]), the “effect on phosphorylation of Histone H3 (Ser-10)” value (“effect … (Ser-10)” for short) is reported as “highly effective at inhibiting”. In addition, the “effect on auto-phosphorylation of Aurora A” value (“effect … of Aurora A” below) in test [6] is listed as “highly effective at inhibiting”. The soft agar colonies in the test with HT-29 cells [7] (HT-29, Alisertib 2 μM) came to 56 colonies; in the test with MDA-MB-468 cells [9] (MDA-MB-468, Alisertib 0.5 μM), 67 colonies. The inhibition at 2 µM in the test with HT-29 cells [7] (Homo sapiens, HT-29, Alisertib 2 μM, read-out: inhibition of soft agar colonies) is 56.6%. Besides, the inhibition at 4 µM in the test on HT-29 cells [8] (Homo sapiens, HT-29, Alisertib 4 μM) amounted to 64%.

As to `N#CC[C@H](C1CCCC1)n1cc(-c2ncnc3[nH]ccc23)cn1` [Ruxolitinib], the IC50 in the test on HT29 cells (HT-29, 48 h) turned out to be 44.7 µM; in the test on MDA-MB-468 cells [4], 26 µM. Also, the inhibition at 20 µM worked out at 14.3% in the test on HT29 cells (HT-29, HT29, Ruxolitinib 20 μM, 48 h) and 44.2% in the test with HT-29 cells [7] (Homo sapiens, HT-29, Ruxolitinib 20 μM, read-out: inhibition of soft agar colonies). The PARP cleavage entry in [1] (e.g. Ruxolitinib 0.4 μM) was “neither Alisertib nor Ruxolitinib induced PARP cleavage”. In addition, the “effect on P-STAT3” value in test [2] is “inhibited P-STAT3”; in the test with P-STAT3 (HT-29, Ruxolitinib 20 μM) it was “inhibited P-STAT3”. For the same molecule, the “effect on phosphorylation of STAT3 (Y705)” value in test [2] is recorded as “able to inhibit the phosphorylation of STAT3”. For the same molecule, the inhibition at 30 µM in the test on MDA-MB-468 cells [3] (setting [13]) was found to be 48.6%; with MDA-MB-468 cells [9] (setting [13]), 23.7%. Further, the invaded cells with MDA-MB-468 cells [3] (MDA-MB-468, Ruxolitinib 30 μM) is 177 cells; with HT-29 cells [8] (HT-29, Ruxolitinib 40 μM) it was 305 cells. This molecule also returned an inhibition at 35 µM with MDA-MB-468 cells [4] (MDA-MB-468, Ruxolitinib 35 μM) of 51.2%. For the same molecule, the “effect on P-Histone H3” value in test [5] (MDA-MB-468, Ruxolitinib 30 μM) is “not P-Histone H3”; with P-Histone H3 (HT-29, Ruxolitinib 20 μM), “not P-Histone H3”. The “effect … (Ser-10)” value in test [5] (setting [12]) is given as “not that of Histone H3”. The “effect … of Aurora A” value in test [6] is “not that of Histone H3 or the auto-phosphorylation of Aurora A”. In addition, the soft agar colonies in the test on HT-29 cells [7] (HT-29, Ruxolitinib 20 μM) was 72 colonies; with MDA-MB-468 cells [9] (MDA-MB-468, Ruxolitinib 30 μM), 100 colonies. The same molecule came in with an inhibition at 40 µM with HT-29 cells [8] (Homo sapiens, HT-29, Ruxolitinib 40 μM) of 71.4%.

Turning to `Cc1cc(Nc2cc(N3CCN(C)CC3)nc(Sc3ccc(NC(=O)C4CC4)cc3)n2)[nH]n1` [VX-680, Tozasertib], in the test on MDA-MB-468 cells [10], the G2/M accumulation entry is “induced a significant G2/M accumulation”. In addition, the “effect … (Ser-10)” value in [5] is recorded as “highly effective at inhibiting”. Besides, the “effect … of Aurora A” value in test [6] is reported as “highly effective at inhibiting”.
